Target: T1, OR2AT4 (human olfactory receptor, endogenously expressed in HaCaT cells) (Homo sapiens, UniProt A6NND4)
T1 construct: OR2AT4, endogenous, HaCaT cells, calcium; endogenous in cells; host or cells: HaCaT cells
T1 sequence (A6NND4 1-320): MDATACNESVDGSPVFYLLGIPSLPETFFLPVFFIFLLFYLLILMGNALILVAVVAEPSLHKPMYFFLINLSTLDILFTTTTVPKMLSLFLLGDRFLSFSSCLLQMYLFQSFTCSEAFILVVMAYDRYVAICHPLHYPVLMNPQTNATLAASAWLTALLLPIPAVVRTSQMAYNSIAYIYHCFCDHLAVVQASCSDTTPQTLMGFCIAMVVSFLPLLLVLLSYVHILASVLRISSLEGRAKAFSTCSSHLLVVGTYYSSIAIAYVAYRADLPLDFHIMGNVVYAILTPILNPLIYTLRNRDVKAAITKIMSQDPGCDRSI
Test: Calcium imaging, dose-dependent activation of HaCaT cells by Sandalore, fourth application (FIG. 9D)
Format: cell-based
Conditions: HaCaT keratinocytes, endogenous OR2AT4, intracellular calcium signal amplitude, 0.0125-10 mM
Source text: A method established at the Department of Cell Physiology of Ruhr University Bochum for deorphanization studies is calcium imaging, in which activation of an OR by an odorant is visualized by a change in the intracellular calcium concentration of transfected cells using a fluorescent dye [cf. Wetzel et al. in: J. Neurosci. 19, pp. 7426-7433 (1999); Spehr et al. in: Science 299, pp. 2054-2058 (2003); Neuhaus et al. in: J. Biol. Chem. 284, pp. 16218-16225 (2009)]. In this method, the Hana3A cells are briefly (20 s) stimulated with an odorant and selected for odorant screenings of high concentrations (up to 1 mM) in order to confirm activation of ORs weakly expressed in Hana3A cells.
For detection of OR2AT4 at the transcript level, RNA of various skin cell types and skin biopsy specimens was isolated, and RT-PCR was carried out. Transcripts of OR2AT4 were detected in human primary keratinocytes of various differentiation stages, HaCaT cells, and human skin biopsy specimens (full thickness skin) (FIG. 6). […] In contrast, no expression of the receptor was detected in adipocytes or fibroblasts (FIG. 6, center). […]
Effect of the OR2AT4 ligand Sandalore® on intracellular calcium concentration of cultivated keratinocytes. […] Right: Quantitative evaluation of calcium signals in 4-time application of Sandalore® (500 μM). […]

Q: How did the EC50 turn out when CC1=CCC(CCC(C)C(C)O)C1(C)C (stereo not shown) [Sandalore] was run?
A: 110 µM
